# From patent US4883863A, “Tripeptide derivatives and antiplasmin agents containing the same” (Nitto Boseki Co., Ltd., priority 1987, dated 1989)
# Where a name gives a salt, the structure may show the parent alone. Read-outs that look alike come from different tables or passages of the source. Where a SMILES comes first, the peptide text is derived from it. [ ]: non-standard residue; d: D form. The star is where a group is joined. Tos = Cc1ccc(S(=O)(=O)*)cc1
# Assays:
# human plasma kallikrein = target: T1, human plasma kallikrein (Homo sapiens, UniProt P03952); experiment: Kallikrein-inhibiting activity, synthetic substrate S-2302; assay type: biochemical; conditions: S-2302, pH 8.0, 37° C.
# T1 construct: purchased Kabi Co., Ltd
# T1 sequence (P03952 391-638 limits assumed): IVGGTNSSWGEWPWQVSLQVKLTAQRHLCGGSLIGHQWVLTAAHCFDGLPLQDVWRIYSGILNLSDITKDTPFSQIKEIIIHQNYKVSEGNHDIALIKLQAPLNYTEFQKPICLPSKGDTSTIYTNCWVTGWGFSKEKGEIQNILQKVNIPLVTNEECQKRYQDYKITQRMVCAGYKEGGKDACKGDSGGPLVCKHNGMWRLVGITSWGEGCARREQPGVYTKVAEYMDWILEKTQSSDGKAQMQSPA
# T1 sequence (P03952 20-390 partner limits assumed): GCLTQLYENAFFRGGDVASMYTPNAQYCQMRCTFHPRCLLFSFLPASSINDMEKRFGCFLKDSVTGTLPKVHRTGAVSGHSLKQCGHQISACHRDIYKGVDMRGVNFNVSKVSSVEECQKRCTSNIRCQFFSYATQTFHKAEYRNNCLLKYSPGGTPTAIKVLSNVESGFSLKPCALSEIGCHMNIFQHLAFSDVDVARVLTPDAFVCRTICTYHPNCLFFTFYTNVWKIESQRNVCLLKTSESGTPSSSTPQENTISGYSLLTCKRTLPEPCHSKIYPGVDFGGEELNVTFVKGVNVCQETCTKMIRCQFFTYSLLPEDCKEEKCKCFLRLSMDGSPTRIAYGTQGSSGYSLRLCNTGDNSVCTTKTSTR
# Source text: (§1) Synthetic substrates used for testing the inhibitory activity of the inhibitors on decomposition of substrates by the enzymes were as follows. For plasmin, PS-994 (H--D--Lys(Tos)--Phe--Lys--CHA·2HCl, mfd. by NITTO BOSEKI Co., Ltd.) was used; for thrombin and trypsin, PS-915 (H--D--Phe--Pro--Arg--CHA·2HCl, mfd. by NITTO BOSEKI Co., Ltd.); for Factor Xa, PS-2000 (Z--D--Lys--(HCO)--Gly--Arg--CHA·HCl, mfd. by NITTO BOSEKI Co., Ltd.); and for kallikrein, S-2302 (H--D--Pro--Phe--Arg--pNA, mfd., by Kabi Co., Ltd.).
# (§2) As plasmin, standard plasmin of Sankyo Color Test α2 -D1 Kit was used in an amount of 0.3CU/ml. As thrombin, that of Sankyo Color Test ATIII kit was used in an amount of 1.2 NIHU/ml. As trypsin, that of cord 3703 of Worthington was used in an amount of 2 μg/ml. As human Factor Xa, that of Boehringer Manheim Co., Ltd. was used in an amount of 0.25 U/ml. As human plasma kallikrein, that of Kabi Co., Ltd. was used in an amount of 0.12 U/ml. As terminating color reagents, those for Sankyo Color Test Kit were used. The reactions were carried out at 37° C. unless otherwise specified.
# Each of aqueous solutions (0.1 ml) of the inhibitors which solutions were various in their respective concentrations was added to 0.4 ml of a buffer solution (a 150 mM aqueous sodium chloride solution containing 50 mM Tris, pH 8.0), and the resulting mixture was heated for 5 minutes. Then, 0.1 ml of a kallikrein solution [containing 0.5% bovine serum albumin (No. A8022 available from Sigma Chemical Co.)] was added, followed by incubation for 5 minutes. Subsequently, a 10 mM S-2302 aqueous solution (0.1 ml) was added. The reaction was terminated by addition of a 20% aqueous acetic acid solution. Absorbance at 405 nm was measured and IC50 was measured in the manner described above.
# thrombin = target: T2, thrombin (Homo sapiens, UniProt P00734); experiment: Thrombin-inhibiting activity, synthetic substrate PS-915; assay type: biochemical; conditions: PS-915, pH 8.5, 37° C.
# T2 construct: purchased Sankyo (Color Test ATIII kit)
# Source text: as §1, §2
# Each of aqueous solutions (0.1 ml) of the inhibitors which solutions were various in their respective concentrations was added to 0.4 ml of a buffer solution (a 150 mM aqueous sodium chloride solution containing 150 mM Tris, pH 8.5), and the resulting solution was heated for 5 minutes. To this solution was added 0.2 ml of thrombin solution, followed by incubation for 5 minutes. Then, 0.1 ml of a PS-915 solution (10 mM) was added, followed by incubation for 5 minutes. Thereafter, 2 ml of terminating color reagent was added. After standing for 10 minutes, absorbance at 700 nm was measured, and IC50 was determined in the manner described above.
# plasmin [1] = target: T3, plasmin (Homo sapiens, UniProt P00747); experiment: Inhibitory activity on fibrin decomposition by plasmin (natural substrate); assay type: biochemical; set-up: Standard human serum (0.1 ml); from tissue; conditions: concentration doubling time for complete dissolution, 25° C.
# Procedure: The determination was carried out by the method of Okamoto et al. (see Keio Journal of Medicine, vol. 11, p. 105 (1962).
# Standard human serum (0.1 ml), 0.4 ml of each of 1/20 M potassium phosphate sodium physiological salt buffer solutions (pH 7.4) containing various concentrations of each inhibitor, and 0.1 ml of a solution of streptokinase in physiological saline (1000 U/ml) were stirred and then cooled at 0° C. for 10 minutes. Thereto was added 0.05 ml of a solution of thrombin in physiological saline (100 NIHU/ml, mfd. by Parke Davis Co. Ltd.) at 0° C. After standing for 1 minute, 0.3 ml of a 0.33% solution of bovine fibrinogen (F-4753, available from Sigma Chemical Co.) in physiological saline was added, and the resulting mixture was allowed to stand at 25° C. The solubility was measured every minute by the standard of judgement of Nakamura (see Allergy, vol. 5, p. 1 (1956)) and the time required for complete dissolution was determined. A concentration of the inhibitor at which said time is twice that required in the absence of the inhibitor was determined as IC50.
# Target sequence in this assay (P00747 581-810 limits assumed): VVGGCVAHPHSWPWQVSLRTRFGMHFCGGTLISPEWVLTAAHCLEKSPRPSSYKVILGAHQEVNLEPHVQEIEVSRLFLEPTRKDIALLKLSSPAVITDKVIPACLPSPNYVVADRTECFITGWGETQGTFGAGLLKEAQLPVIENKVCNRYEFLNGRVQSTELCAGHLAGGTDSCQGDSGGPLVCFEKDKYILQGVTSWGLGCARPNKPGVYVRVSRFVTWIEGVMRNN
# Target sequence in this assay (P00747 97-580 partner limits assumed): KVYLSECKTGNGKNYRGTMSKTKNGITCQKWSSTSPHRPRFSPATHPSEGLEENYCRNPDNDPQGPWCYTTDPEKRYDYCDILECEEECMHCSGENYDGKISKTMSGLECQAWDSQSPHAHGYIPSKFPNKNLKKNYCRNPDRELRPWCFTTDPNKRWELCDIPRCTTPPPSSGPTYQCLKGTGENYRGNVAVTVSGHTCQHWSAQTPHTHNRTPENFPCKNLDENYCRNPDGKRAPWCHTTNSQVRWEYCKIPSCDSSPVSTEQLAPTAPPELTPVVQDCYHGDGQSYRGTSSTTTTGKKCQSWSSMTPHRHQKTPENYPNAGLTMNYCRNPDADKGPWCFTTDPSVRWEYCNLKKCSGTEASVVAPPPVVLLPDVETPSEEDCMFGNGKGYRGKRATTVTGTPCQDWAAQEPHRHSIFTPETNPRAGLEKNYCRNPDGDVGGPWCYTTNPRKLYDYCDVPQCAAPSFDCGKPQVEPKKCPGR
# plasmin [2] = target: T3, plasmin; experiment: Plasmin-inhibiting activity, synthetic substrate PS-994; assay type: biochemical; set-up: purchased Sankyo (Color Test α2 -D1 Kit); conditions: PS-994, pH 7.8, 37° C.
# Source text: as §1, §2
# Target sequence in this assay (P00747 581-810 limits assumed, species assumed): as the sequence (P00747 581-810 limits assumed) above
# Target sequence in this assay (P00747 97-580 partner limits assumed, species assumed): as the sequence (P00747 97-580 partner limits assumed) above
# Each of aqueous solutions (0.1 ml) of the inhibitors which solutions were various in their respective concentrations was added to 0.4 ml of a buffer solution (a 150 mM aqueous sodium chloride solution containing 100 mM Tris, pH 7.8), and the resulting solution was heated for 5 minutes. To this solution was added 0.2 ml of plasmin solution, followed by incubation for 5 minutes, and then 0.1 ml of a PS-994 solution (10 mM) was added, and then incubated for 5 minutes. After completion of the reaction, 2.0 ml of terminating color reagent was added, and after standing for 10 minutes, absorbance at 700 nm was measured. A concentration of the inhibitor in the reaction system at which the absorbance was one-half that obtained in the absence of the inhibitor was determined as IC50.
# trypsin = target: T4, trypsin (Bos taurus, UniProt P00760); experiment: Trypsin-inhibiting activity, synthetic substrate PS-915; assay type: biochemical; conditions: PS-915, pH 8.0, 37° C.
# T4 construct: purchased Worthington 3703
# T4 sequence (P00760 24-246): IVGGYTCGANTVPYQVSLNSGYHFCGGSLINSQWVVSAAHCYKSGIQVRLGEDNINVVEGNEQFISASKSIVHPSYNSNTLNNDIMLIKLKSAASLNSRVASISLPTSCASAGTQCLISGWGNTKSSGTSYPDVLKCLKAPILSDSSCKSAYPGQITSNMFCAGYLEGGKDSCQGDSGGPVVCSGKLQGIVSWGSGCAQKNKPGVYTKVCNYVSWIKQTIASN
# Source text: as §1, §2
# Each of aqueous solutions (0.1 ml) of the inhibitors which solutions were various in their respective concentrations was added to 0.5 ml of a buffer solution (a 150 mM aqueous sodium chloride solution containing 150 mM Tris, pH 8.0), and the resulting solution was heated for 5 minutes. Then, 0.1 ml of a trypsin solution was added, followed by incubation for 5 minutes. Subsequently, 0.1 ml of a PS-915 solution (10 mM) was added, followed by incubation for 5 minutes. Thereafter, 2 ml of terminating color reagent [containing […] of soybean trypsin inhibitor (No. T-9003, available from Sigma Chemical Co.)] was added. After standing for 10 minutes, absorbance at 700 nm was measured and IC50 was determined in the manner described above.
# human Factor Xa = target: T5, human Factor Xa (Homo sapiens, UniProt P00742); experiment: Factor Xa-inhibiting activity, synthetic substrate PS-2000; assay type: biochemical; conditions: PS-2000, pH 8.5, 37° C.
# T5 construct: purchased Boehringer Manheim Co., Ltd
# T5 sequence (P00742 235-488 limits assumed): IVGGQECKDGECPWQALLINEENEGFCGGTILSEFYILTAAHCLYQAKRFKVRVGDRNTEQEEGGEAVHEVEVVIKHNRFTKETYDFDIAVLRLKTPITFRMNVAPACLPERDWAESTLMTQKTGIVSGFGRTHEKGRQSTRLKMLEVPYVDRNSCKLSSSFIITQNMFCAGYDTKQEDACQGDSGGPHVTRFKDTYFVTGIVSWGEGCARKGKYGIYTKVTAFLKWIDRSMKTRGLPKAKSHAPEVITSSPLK
# T5 sequence (P00742 41-179 partner limits assumed): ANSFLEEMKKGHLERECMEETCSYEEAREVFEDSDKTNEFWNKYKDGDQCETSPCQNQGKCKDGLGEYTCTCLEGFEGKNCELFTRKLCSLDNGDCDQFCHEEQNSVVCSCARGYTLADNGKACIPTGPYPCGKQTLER
# Source text: as §1, §2
# Each of aqueous solutions (1 ml) of the inhibitors which solutions were various in their respective concentrations was added to 0.3 ml of a buffer solution (a 150 mM aqueous sodium chloride solution containing 50 mM Tris, pH 8.5 ), and the resulting solution was heated for 5 minutes. Then, 0.1 ml of a Factor Xa solution (a 150 mM aqueous sodium chloride solution containing 50 mM Tris and 20 mM calcium chloride, pH 8.5) was added, followed by incubation for 5 minutes. Subsequently, a 5% polyvinyl pyrrobidone solution (0.1 ml) containing 10 mM PS-2000 was added, followed by incubation for 5 min. Thereafter, 2 ml of terminating color reagent was added. After standing for 10 minutes, absorbance at 700 nm was measured and IC50 was determined in the manner described above.
# thrombin and trypsin = conditions: background, related art; cited from earlier work
# plasmin [3] = target: T3, plasmin; set-up: purchased Sankyo (Color Test α2 -D1 Kit); conditions: background, related art; cited from earlier work
# Target sequence in this assay (P00747 581-810 limits assumed, species assumed): as the sequence (P00747 581-810 limits assumed) above
# Target sequence in this assay (P00747 97-580 partner limits assumed, species assumed): as the sequence (P00747 97-580 partner limits assumed) above
# plasmin [4] = target: T3, plasmin; set-up: purchased Sankyo (Color Test α2 -D1 Kit); conditions: cited from earlier work
# Target sequence in this assay (P00747 581-810 limits assumed, species assumed): as the sequence (P00747 581-810 limits assumed) above
# Target sequence in this assay (P00747 97-580 partner limits assumed, species assumed): as the sequence (P00747 97-580 partner limits assumed) above
# plasmin [5] = target: T3, plasmin; set-up: purchased Sankyo (Color Test α2 -D1 Kit); conditions: cited from earlier work; remark: listed apart in the source
# Target sequence in this assay (P00747 581-810 limits assumed, species assumed): as the sequence (P00747 581-810 limits assumed) above
# Target sequence in this assay (P00747 97-580 partner limits assumed, species assumed): as the sequence (P00747 97-580 partner limits assumed) above
IC50 (human plasma kallikrein; Table 4),IC50 (thrombin; Table 4),IC50 (plasmin [1]; Table 4),IC50 (plasmin [2]; Table 4),IC50 (trypsin; Table 4),IC50 (human Factor Xa; Table 4),Molecule,"inhibition of proteases other than plasmin, for example, thrombin and trypsin (thrombin and trypsin)",antiplasmin activity (plasmin [3]),also measured
4.9 µM,> 1000 µM,0.37 µM,0.66 µM,27 µM,200 µM,"CC(=O)N[C@H](CCCCNS(=O)(=O)c1ccc(C)cc1)C(=O)N[C@@H](Cc1ccccc1)C(=O)N[C@H](C=O)CCCCN [Compound 3, N-α-Acetyl-N-ε-(p-tosyl)-D-lysyl-L-phenylalanyl-L-lysinal hydrochloride] (Ac-[dK](Tos)-Phe-Lys-aldehyde)",–,–,–
–,–,–,–,–,–,N=C(N)Nc1ccc(C(=O)Oc2ccc3cc(C(=N)N)ccc3c2)cc1 [Nafamstat],strongly inhibit,have antiplamin activity,–
–,–,–,–,–,–,NCCCCCC(=O)O [ε-Aminocaproic acid],–,–,"ability to inhibit decomposition of other substrates by plasmin, e.g. fibrinogen (plasmin [4]; background, related art): substantially no ability to inhibit; inhibition of fibrinolysis by plasmin (plasmin [5]; background, related art): inhibit only fibrinolysis by plasmin"
–,–,–,–,–,–,CC(=O)N[C@@H](CC(C)C)C(=O)N[C@@H](CC(C)C)C(=O)N[C@H](C=O)CCCCN [acetyl-L-leucyl-L-leucyl-lysinal] (Ac-Leu-Leu-Lys-aldehyde),–,has antiplasmin activity,–
–,–,–,–,–,–,"NC[C@H]1CC[C@H](C(=O)O)CC1 [t-AMCHA, trans-aminoethylcyclohexanecarboxylic acid]",–,–,"ability to inhibit decomposition of other substrates by plasmin, e.g. fibrinogen (plasmin [4]): substantially no ability to inhibit; inhibition of fibrinolysis by plasmin (plasmin [5]): inhibit only fibrinolysis by plasmin"
–,–,–,–,–,–,CCOC(=O)c1ccc(OC(=O)CCCCCN=C(N)N)cc1.CS(=O)(=O)O [FOY],strongly inhibit,have antiplamin activity,–
0.96 µM,> 1000 µM,0.27 µM,0.17 µM,18 µM,160 µM,"Cc1ccc(S(=O)(=O)NCCCC[C@@H](N)C(=O)N[C@@H](Cc2ccccc2)C(=O)N[C@H](C=O)CCCCN)cc1 [Compound 7, N-ε-(p-Tosyl)-D-lysyl-L-phenylalanyl-L-lysinal dihydrochloride] (H-[dK](Tos)-Phe-Lys-aldehyde)",–,–,–
–,–,–,–,–,–,aprotinin,strongly inhibit,have antiplamin activity,–
–,–,–,–,–,–,CN(C)C(=O)COC(=O)Cc1ccc(OC(=O)c2ccc(NC(=N)N)cc2)cc1 [Camostat],strongly inhibit,have antiplamin activity,–
0.54 µM,> 1000 µM,0.78 µM,0.032 µM,3.2 µM,16 µM,"Cc1ccc(S(=O)(=O)NCCCC[C@@H](NS(=O)(=O)c2ccc(C)cc2)C(=O)N[C@@H](Cc2ccccc2)C(=O)N[C@H](C=O)CCCCN)cc1 [Compound 5, N-α-N-ε-Di(p-tosyl)-D-lysyl-L-phenylalanyl-L-lysinal hydrochloride] (Tos-[dK](Tos)-Phe-Lys-aldehyde)",–,–,–
–,–,–,–,–,–,"CC(=O)N[C@@H](CC(C)C)C(=O)N[C@@H](CC(C)C)C(=O)N[C@H](C=O)CCCNC(=N)N [Compound A4, AcLeuLeuArgH.1/2H2 SO4.H2 O (leupeptin), reference compound]",–,–,IC50 (human plasma kallikrein; Table 3): 130 µM; IC50 (thrombin; Table 3): 590 µM; IC50 (plasmin [1]; Table 3): 5.5 µM; IC50 (plasmin [2]; Table 3): 20 µM; IC50 (trypsin; Table 3): 0.78 µM; IC50 (human Factor Xa; Table 3): 14 µM

Molecule,IC50 (human plasma kallikrein; Table 4),IC50 (thrombin; Table 4),IC50 (plasmin [1]; Table 4),IC50 (plasmin [2]; Table 4),IC50 (trypsin; Table 4),IC50 (human Factor Xa; Table 4),"inhibition of proteases other than plasmin, for example, thrombin and trypsin (thrombin and trypsin)",antiplasmin activity (plasmin [3]),also measured
"Cc1ccc(S(=O)(=O)NCCCC[C@@H](NC(=O)OCC(C)C)C(=O)N[C@@H](Cc2ccccc2)C(=O)N[C@H](C=O)CCCCN)cc1 [Compound 1, N-α-Isobutoxycarbonyl-N-ε-(p-tosyl)-D-lysyl-L-phenylalanyl-L-lysinal hydrochloride]",0.18 µM,> 1000 µM,0.23 µM,0.034 µM,2.8 µM,8.1 µM,–,–,–
"Cc1ccc(S(=O)(=O)NCCCC[C@@H](NC(=O)OCC(C)C)C(=O)N[C@@H](Cc2ccccc2)C(=O)N[C@@H](CCCCN)C(=O)CCl)cc1 [Compound 13, N-α-Isobutoxycarbonyl-N-ε-(p-tosyl)-D-lysyl-L-phenylalanyl-L-lysine chloromethyl ketone hydrochloride]",0.11 µM,2.5 µM,0.44 µM,0.031 µM,0.68 µM,2.9 µM,–,–,–
